The values below are quoted from earlier work in US20080175908A1, “TABLET-IN-TABLET COMPOSITIONS” (Wyeth, priority 2007, published 2008).

Data set [1] has as its system MCF-7 cell line (human breast cancer cell line).
The test system of data set [2] is ovariectomized rat model of osteopenia.
The subject of another data set is uterine response. To be noted: preclinical models of uterine stimulation.

Consider `Cc1c(-c2ccc(O)cc2)n(Cc2ccc(OCCN3CCCCCC3)cc2)c2ccc(O)cc12` [bazedoxifene acetate, 1-[4-(2-azepan-1-yl-ethoxy)-benzyl]-2-(4-hydroxy-phenyl)-3-methyl-1H-indol-5-ol acetic acid], for which, in data set [1], the estrogen antagonist behaviour entry is given as “behaves as an estrogen antagonist”. In data set [2], the “prevention of bone loss” value is on record as “estrogen agonist-like effect in preventing bone loss” and the reduction of cholesterol entry is reported as “reducing cholesterol”. Besides, the “stimulation of uterine response” value with uterine response is recorded as “little or no stimulation of uterine response”.
